Each structure is given as a SMILES string. Entries after “also recorded” stand apart in the source; their conditions may differ.

One data set has as its target T1, mutant AR in LNCaP cells (Homo sapiens, UniProt P10275, T878A).
T1 construct: endogenous in cells; host or cells: LNCaP cells (only reporter plasmids transfected)
T1 sequence (P10275 1-920 T878A): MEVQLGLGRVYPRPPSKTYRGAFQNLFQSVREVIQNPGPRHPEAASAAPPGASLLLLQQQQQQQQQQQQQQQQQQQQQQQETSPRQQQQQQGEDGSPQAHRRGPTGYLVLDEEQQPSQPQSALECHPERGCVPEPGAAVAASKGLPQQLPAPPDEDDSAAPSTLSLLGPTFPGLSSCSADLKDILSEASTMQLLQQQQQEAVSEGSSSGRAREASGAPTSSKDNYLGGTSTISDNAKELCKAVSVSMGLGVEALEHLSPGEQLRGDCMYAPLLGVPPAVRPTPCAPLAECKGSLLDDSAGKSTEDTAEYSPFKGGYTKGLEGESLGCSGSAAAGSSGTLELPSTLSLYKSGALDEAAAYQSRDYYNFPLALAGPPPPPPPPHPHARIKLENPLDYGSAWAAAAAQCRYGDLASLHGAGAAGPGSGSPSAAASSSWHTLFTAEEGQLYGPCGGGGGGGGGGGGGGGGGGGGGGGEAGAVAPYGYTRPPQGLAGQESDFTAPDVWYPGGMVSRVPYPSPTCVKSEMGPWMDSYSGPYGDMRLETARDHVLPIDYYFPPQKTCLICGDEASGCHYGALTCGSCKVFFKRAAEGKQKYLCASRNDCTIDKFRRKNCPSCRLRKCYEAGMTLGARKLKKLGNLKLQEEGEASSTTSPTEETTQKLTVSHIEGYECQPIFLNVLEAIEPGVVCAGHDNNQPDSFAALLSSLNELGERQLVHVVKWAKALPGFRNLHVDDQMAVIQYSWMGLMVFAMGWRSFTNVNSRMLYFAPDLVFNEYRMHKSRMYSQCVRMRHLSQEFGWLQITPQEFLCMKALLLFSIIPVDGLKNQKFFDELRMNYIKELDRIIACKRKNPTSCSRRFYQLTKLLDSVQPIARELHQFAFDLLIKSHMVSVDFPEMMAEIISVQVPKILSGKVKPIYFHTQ
Kind of data set: Anti-prostate cancer screening, anti-androgenic bioassay (AR transactivation) in LNCaP cells. Type of data set: cell-based. The note with it: 1 nM DHT, 24 h. As to the method:
Human prostate cancer LNCaP and PC-3 cells were maintained in RPMI medium and Dulbecco’s minimum essential medium (DMEM), respectively. Both media were supplemented with penicillin (25 units/mL), streptomycin ([…]), and 10% fetal calf serum. For the androgen receptor transactivation assay, an androgen-dependent reporter gene transcription test was employed as the primary screening for potential anti-androgen identification. This assay was first performed in LNCaP cells, which express a clinically relevant mutant AR. […] Wild type AR transactivation assay was performed in PC-3 host cells, which lack an endogenous, functional AR. The method and conditions of cell and gene transfection have been described previously. In brief, cells were plated in 24-well tissue culture dishes for 24 (PC-3 cells) or 48 (LNCaP cells) h prior to transfection. Subsequently, LNCaP cells were transfected with a reporter gene, MMTV-luciferase, which contains a MMTV-long terminal repeat (LTR) promoter and an androgen receptor binding element, and Renilla Luciferase Control Reporter Vectors 40 (PRL-SV40), which served as an internal control for transfection efficiency. PC-3 cells were transfected with a wild type AR expression plasmid, plasmide gene-5 androgen recptor (pSG5AR), in addition to the above-mentioned MMTV-luciferase reporter gene and PRL-SV40 internal control. SuperFect (Qiagen, Chatsworth, CA, USA) was employed as the transfection reagent following the manufacturer’s recommendations. At the end of a 5-h transfection, the medium was changed to DMEM or RPMI supplemented with 10% charcoal dextran-stripped, i.e., androgen-depleted, serum. After 24 h, the cells were treated with 1 nM of DHT and/or test compounds at the designated concentrations.
After 24 h the cells were harvested for luciferase activity assay using the Dual Luciferase Assay System (Promega, Madison, WI, USA.). The derived data was expressed as relative luciferase activity normalized to the internal luciferase control.

A further data set deals with castrated immature rats. Nature of the data set: In vivo anti-androgenic activity in castrated immature rats treated with testosterone propionate. Also on record: species or system rat. The conditions noted are these: for % (Inhibition), in vivo anti-androgen activity: inhibition of TP effect (TP 0.5 mg/kg s.c. once daily for 5 days), tested compound 10-30 mg/kg p.o.; for ED50: Rattus norvegicus, read-out: ED50, in vivo anti-androgen activity. From the text:
[…] male Wistar rats were obtained from the Animal House Colony, Research Institute of Ophthalmology, Giza, Egypt. Prepubertal male rats aged 3 weeks were castrated using the scrotal route under ether anesthesia.

The nature of data set [1]: Acute toxicity (LD50) in rats. The note with it: rat, in vivo, rats injected with increasing doses. As to the method:
The LD50 was determined by using rats injected with different increasing doses of the synthesized compounds. The dose that killed 50% of the animals was calculated according to Austen and Brocklehurst (Table 4).

Setting [2] is: other: injected (kind of injection not stated).

The LD50 is the dose at which mortality reaches 50%. For the molecule `NNc1nc2c(ccc3ccccc32)s1` [Compound 1, 1-(naphtho[1,2-d]thiazol-2-yl)hydrazine], the “IC50 LNCaP, anti-prostate cancer activity” value against mutant AR in LNCaP cells is listed as “devoid from any activities; also recorded: Inactive”. Moreover, in the data set on castrated immature rats (castrated immature rats, TP 0.5 mg/kg s.c., compound p.o.), the “ED50, in vivo anti-androgen activity” value is listed as “Inactive”. Also, the figures for the “% (Inhibition), in vivo anti-androgen activity” value (“% (Inhibition)” for short) in the data set with castrated immature rats and with castrated immature rats (listed as compound 1) were “Inactive” and “devoid from any activities”, respectively. Besides, in data set [1] (other: injected), the LD50 stood at 1160 mg/kg.

One may read the IC50 as the midpoint of a concentration-inhibition curve. Read a low IC50 as inhibition by little substance. For orientation: ED50 means the dose at which the effect has come halfway, by size or by number of responders. For the molecule `N#Cc1cnn(-c2nc3c(ccc4ccccc43)s2)c1N` [Compound 2, 2-[3-Amino-4-cyanopyrazol-2-yl]naphthalino[1,2-d]thiazole], half-maximal inhibition against mutant AR in LNCaP cells (IC50) required 51.5 nM. Moreover, in the data set on castrated immature rats, the ED50 worked out at 0.049 mg/kg and the “% (Inhibition)” value was found to be 95.49%. Also, in data set [1] (other: injected), the LD50 is 163 mg/kg.

With `Nc1ncnc2c1cnn2-c1nc2c(ccc3ccccc32)s1` [Compound 3], 58.6 nM corresponded to half-maximal inhibition against mutant AR in LNCaP cells (IC50). Further, in the data set with castrated immature rats, the ED50 stood at 0.063 mg/kg and the “% (Inhibition)” value was 91%. The same molecule showed an LD50 in data set [1] (setting [2]) of 175 mg/kg.

Turning to `Nc1n[nH]c2c1cnn2-c1nc2c(ccc3ccccc32)s1` [Compound 4], at mutant AR in LNCaP cells, the IC50 is 56.6 nM. Moreover, in the data set with castrated immature rats, the ED50 came to 0.051 mg/kg and the “% (Inhibition)” value worked out at 93.98%. This molecule came in with an LD50 in data set [1] (setting [2]) of 266 mg/kg.

The molecule `Nc1nc(=S)[nH]c2c1cnn2-c1nc2c(ccc3ccccc32)s1` [Compound 5, 2-[6-Amino-3H-4-thiopyrimidino[4,5-c]pyrazol-2-yl]naphthalino[1,2-d]thiazole] yielded an IC50 on mutant AR in LNCaP cells of 64.3 nM. Moreover, in the data set with castrated immature rats, the ED50 was 0.089 mg/kg and the “% (Inhibition)” value was 89.09%. Besides, the LD50 in data set [1] (other: injected) amounted to 267 mg/kg.

As for `N=c1sc(=S)[nH]c2c1cnn2-c1nc2c(ccc3ccccc32)s1` [Compound 6, 2-[6-Imino-3H-4-thiothiazino[4,5-c]pyrazol-2-yl]naphthalino[1,2-d]thiazole], at mutant AR in LNCaP cells, the IC50 was 72.4 nM. Besides, in the data set on castrated immature rats, the ED50 was 0.092 mg/kg and the “% (Inhibition)” value came out at 88.76%. The molecule further gave an LD50 in data set [1] (other: injected) of 258 mg/kg.

As to `CCO/C=N\c1c(C#N)cnn1-c1nc2c(ccc3ccccc32)s1` [Compound 8, 2-[3-Ethylimidoformat-4-cyanopyrazol-2-yl]naphthalino[1,2-d]thiazole], the IC50 at mutant AR in LNCaP cells was found to be 78.5 nM. Moreover, in the data set with castrated immature rats, the ED50 worked out at 0.097 mg/kg and the “% (Inhibition)” value was 85.43%. In data set [1] (other: injected), this molecule gave an LD50 of 236 mg/kg.

Molecule `N#Cc1cnn(-c2nc3c(ccc4ccccc43)s2)c1/N=C\NN` [Compound 9, 2-[3-Imidoformic hydrazido-4-cyanopyrazol-2-yl]naphthalino[1,2-d]thiazole] gave an IC50 against mutant AR in LNCaP cells of 76.6 nM. In the data set with castrated immature rats, the ED50 stood at 0.095 mg/kg and the “% (Inhibition)” value worked out at 86.56%. Also, the LD50 in data set [1] (other: injected) is 125 mg/kg.

Molecule `Cc1nc2c3cnn(-c4nc5c(ccc6ccccc65)s4)c3ncn2n1` [Compound 10, 2-[6-Methyl[1,2,4]triazolo[2,3-c]pyrimidino[6,5-c]pyrazol-2-yl]naphthalino[1,2-d]thiazole] displayed an IC50 against mutant AR in LNCaP cells of 43.5 nM. In addition, in the data set with castrated immature rats, the ED50 turned out to be 0.071 mg/kg and the “% (Inhibition)” value is 98.87%. Also, the LD50 in data set [1] (other: injected) was determined as 316 mg/kg.

With `N=c1c2cnn(-c3nc4c(ccc5ccccc54)s3)c2ncn1NC(=O)c1ccccc1` [Compound 11], at mutant AR in LNCaP cells, the IC50 is 61.6 nM. In addition, in the data set on castrated immature rats, the ED50 came out at 0.045 mg/kg and the “% (Inhibition)” value stood at 90.01%. Further, in data set [1] (setting [2]), the LD50 was found to be 325 mg/kg.

Take `CCOC1SCC(=O)N1c1c(C#N)cnn1-c1nc2c(ccc3ccccc32)s1` (stereo not shown) [Compound 12, 2-[3-(2-Ethoxy-4-oxo-5-dihydro-1,3-thiazol-3-yl)-4-cyanopyrazol-2-yl]-naphthalino[1,2-d]thiazole]: the IC50 against mutant AR in LNCaP cells was 80 nM. Also, in the data set on castrated immature rats, the ED50 stood at 0.098 mg/kg and the “% (Inhibition)” value was found to be 84.65%. This molecule registered an LD50 in data set [1] (other: injected) of 234 mg/kg.

Molecule `CCOC1SCC2NC(=O)c3cnn(-c4nc5c(ccc6ccccc65)s4)c3N21` (stereo not shown) [Compound 13, 2-[3-Ethoxy-5-dihydro-6H-7-oxo-[1,3]thiazolo[3,4-b]pyrimidino[4,5-c]pyrazol-2-yl]naphthalino[1,2-d]thiazole] came in with an IC50 at mutant AR in LNCaP cells of 49.6 nM. In addition, in the data set on castrated immature rats, the ED50 amounted to 0.047 mg/kg and the “% (Inhibition)” value is on record as 97.56%. Further, the LD50 in data set [1] (other: injected) amounted to 443 mg/kg.

The values above are taken from PMC4264242, “Androgen Receptor Antagonists and Anti-Prostate Cancer Activities of Some Newly Synthesized Substituted Fused Pyrazolo-, Triazolo- and Thiazolo-Pyrimidine Derivatives” (International Journal of Molecular Sciences, 2014).
